Experimental data taken from patent US8148391B2 (Cephalon, Inc., priority 2006, dated 2012).
Like-named read-outs stand apart in the source and are kept apart here. Values belong to the molecule of their own block, whether it stands above or below them.

Legend:
[1] = biological target: T1, baculovirus-expressed ALK (Homo sapiens, UniProt Q9UM73); experiment: ALK Kinase Assay (ELISA-type, time-resolved fluorescence); format: biochemical
T1 construct: host or cells: baculovirus expression system
Outline: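 Substrate coating: phospholipase C-γ, 10 μg/mL in TBS. Kinase step: 30 ng/ml ALK, 15 min, 37° C. Detection and analysis: Eu-N1 PT66 antibody, with IC50 fitted as a sigmoidal variable-slope dose-response curve.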

[2] = biological target: T2, c-Met (cytoplasmic domain) (Homo sapiens, UniProt P08581); experiment: c-Met Kinase Assay (same methods as for ALK, with modifications); format: biochemical
T2 construct: 10 ng/mL c-Met (cytoplasmic domain, Invitrogen Corporation #PV3143); purchased Invitrogen Corporation PV3143
Outline: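 Wells were coated with 10 μg/mL phospholipase C-γ substrate in TBS, and reactions were started with 10 ng/mL c-Met cytoplasmic domain and run at 37° C for 15 minutes. Phosphorylated product was detected with Eu-N1-labeled PT66 antibody. IC50 values came from sigmoidal variable-slope fits of percent inhibition versus log compound concentration.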

[3] = 1 μM ATP (Km level), 30 ng/ml ALK, 37° C., 15 minutes, read-out: ALK Activity (ALK kinase inhibition, IC50 class)
[4] = 1 μM ATP (Km level), 10 ng/mL c-Met, read-out: cMet Activity (c-Met kinase inhibition, IC50 class)
[5] = ALK kinase inhibition, 1 μM ATP (Km level), read-out: ALK Activity
[6] = c-Met kinase inhibition, 1 μM ATP (Km level), read-out: cMet Activity
[7] = 1 μM ATP (Km level), read-out: ALK Activity (ALK Kinase Inhibition, IC50)
[8] = 1 μM ATP (Km level), read-out: cMet Activity (c-Met Kinase Inhibition, IC50)
[9] = ALK kinase inhibition, 1 μM ATP, read-out: ALK Activity
[10] = c-Met kinase inhibition, 1 μM ATP, read-out: cMet Activity

T2 sequence (P08581 956-1390 limits assumed): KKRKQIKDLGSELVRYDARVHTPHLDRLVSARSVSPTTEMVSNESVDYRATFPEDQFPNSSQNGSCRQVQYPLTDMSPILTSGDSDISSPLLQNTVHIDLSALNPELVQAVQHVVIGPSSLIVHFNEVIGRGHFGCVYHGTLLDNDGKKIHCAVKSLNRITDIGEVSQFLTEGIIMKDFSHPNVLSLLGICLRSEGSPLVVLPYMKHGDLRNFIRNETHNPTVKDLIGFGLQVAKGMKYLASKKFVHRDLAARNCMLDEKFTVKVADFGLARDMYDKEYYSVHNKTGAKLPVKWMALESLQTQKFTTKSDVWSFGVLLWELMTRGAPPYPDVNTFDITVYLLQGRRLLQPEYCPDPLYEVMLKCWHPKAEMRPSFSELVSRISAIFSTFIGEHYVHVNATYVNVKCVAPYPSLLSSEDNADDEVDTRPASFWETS
T1 sequence (Q9UM73 19-1620): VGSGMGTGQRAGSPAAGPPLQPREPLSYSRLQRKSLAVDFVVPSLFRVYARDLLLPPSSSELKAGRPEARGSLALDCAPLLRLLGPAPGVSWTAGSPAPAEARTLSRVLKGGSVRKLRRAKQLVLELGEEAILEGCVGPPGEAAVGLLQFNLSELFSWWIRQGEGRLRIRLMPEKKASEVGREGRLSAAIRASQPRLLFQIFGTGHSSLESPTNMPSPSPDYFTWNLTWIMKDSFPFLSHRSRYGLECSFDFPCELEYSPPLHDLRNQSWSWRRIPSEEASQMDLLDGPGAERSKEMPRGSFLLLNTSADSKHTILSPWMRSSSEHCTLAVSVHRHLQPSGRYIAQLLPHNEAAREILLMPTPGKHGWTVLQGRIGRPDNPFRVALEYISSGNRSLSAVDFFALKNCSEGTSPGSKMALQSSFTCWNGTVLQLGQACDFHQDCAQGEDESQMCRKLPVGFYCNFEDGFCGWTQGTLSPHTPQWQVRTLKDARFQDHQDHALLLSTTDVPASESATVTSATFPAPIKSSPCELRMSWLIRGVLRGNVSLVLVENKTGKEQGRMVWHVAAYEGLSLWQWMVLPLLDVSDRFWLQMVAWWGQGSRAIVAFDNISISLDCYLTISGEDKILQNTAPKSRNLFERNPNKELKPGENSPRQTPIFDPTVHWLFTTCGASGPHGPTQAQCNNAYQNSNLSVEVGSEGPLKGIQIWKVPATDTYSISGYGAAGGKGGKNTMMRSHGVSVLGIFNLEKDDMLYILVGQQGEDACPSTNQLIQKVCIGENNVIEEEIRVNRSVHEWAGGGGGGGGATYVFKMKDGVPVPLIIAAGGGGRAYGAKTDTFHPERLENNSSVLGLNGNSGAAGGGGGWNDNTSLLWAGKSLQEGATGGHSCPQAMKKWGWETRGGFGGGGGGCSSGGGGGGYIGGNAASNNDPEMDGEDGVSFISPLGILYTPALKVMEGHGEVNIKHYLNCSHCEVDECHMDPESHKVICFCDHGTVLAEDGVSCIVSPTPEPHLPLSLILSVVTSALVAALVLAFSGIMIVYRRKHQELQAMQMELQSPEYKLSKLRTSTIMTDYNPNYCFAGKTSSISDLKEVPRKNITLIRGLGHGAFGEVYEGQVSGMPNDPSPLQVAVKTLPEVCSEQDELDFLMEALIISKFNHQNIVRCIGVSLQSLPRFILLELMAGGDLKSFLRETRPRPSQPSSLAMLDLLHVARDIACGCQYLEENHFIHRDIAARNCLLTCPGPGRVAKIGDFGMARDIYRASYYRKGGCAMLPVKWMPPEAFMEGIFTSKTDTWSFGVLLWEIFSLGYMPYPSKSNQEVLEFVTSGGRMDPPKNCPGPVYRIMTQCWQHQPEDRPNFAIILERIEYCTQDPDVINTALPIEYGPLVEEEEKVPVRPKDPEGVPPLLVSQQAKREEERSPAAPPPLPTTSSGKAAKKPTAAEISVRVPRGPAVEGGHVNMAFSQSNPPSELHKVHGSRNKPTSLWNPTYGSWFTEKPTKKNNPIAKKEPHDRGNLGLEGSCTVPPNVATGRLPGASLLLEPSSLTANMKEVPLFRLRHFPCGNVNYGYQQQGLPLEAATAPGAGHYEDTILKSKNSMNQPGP

Molecule: COc1cc2c(cc1Nc1ncc(Cl)c(NC3(C(=O)NCC#N)CC3)n1)CCN(CC(=O)N(C)C)CC2 [Example 1199, 1-[5-Chloro-2-(3-dimethylcarbamoylmethyl-8-methoxy-2,3,4,5-tetrahydro-1H-benzo[d]azepin-7-ylamino)-pyrimidin-4-ylamino]-cyclopropanecarboxylic acid cyanomethyl-amide]
IC50 [1, 3]: 100 to 1000 nM
IC50 [2, 4]: > 10000 nM

Molecule: CCN1C(=O)CCCc2c1ccc(Nc1ncc(Cl)c(NC3C4CCC(C4)C3C(N)=O)n1)c2OC (stereo not drawn) [Example 129, (2-exo, 3-exo)-3-[5-Chloro-2-(1-ethyl-6-methoxy-2-oxo-2,3,4,5-tetrahydro-1H-benzo[b]azepin-7-ylamino)-pyrimidin-4-ylamino]-bicyclo[2.2.1]heptane-2-carboxylic acid amide]
IC50 [1, 5]: < 100 nM
IC50 [2, 6]: > 10000 nM

Molecule: N-((1R,2R)-2-{5-Chloro-2-[7-(2,2,2-trifluoro-ethylamino)-6,7,8,9-tetrahydro-5H-benzocyclohepten-2-ylamino]-pyrimidin-4-ylamino}-cyclohexyl)-methanesulfonamide [Example 676]
IC50 [1, 7]: < 100 nM
IC50 [2, 8]: > 10000 nM

Molecule: CCN1CCc2ccc(Nc3ncc(Cl)c(N[C@H]4CCC[C@H]4C(N)=O)n3)cc2CC1 (relative stereo) [Example 176, Cis-2-[5-Chloro-2-(3-ethyl-2,3,4,5-tetrahydro-1H-benzo[d]-azepin-7-ylamino)-pyrimidin-4-ylamino]-cyclopentanecarboxylic acid amide]
IC50 [1, 5]: 100 to 1000 nM
IC50 [2, 6]: 1000 to 10000 nM

Molecule: CN(C)S(=O)(=O)c1ccccc1Nc1nc(Nc2ccc3c(c2)CCN(CC2COCCO2)CC3)ncc1Cl (stereo not drawn) [Example 641, 2-[5-Chloro-2-(3-[1,4]dioxan-2-ylmethyl-2,3,4,5-tetrahydro-1H-benzo[d]azepin-7-ylamino)-pyrimidin-4-ylamino]-N,N-dimethyl-benzenesulfonamide]
IC50 [1, 7]: < 100 nM
IC50 [2, 8]: < 100 nM

Molecule: CNC(=O)c1ccccc1Nc1nc(Nc2ccc3c(c2)C2CN(S(C)(=O)=O)CC3O2)ncc1Cl (stereo not drawn) [Example 64, 2-[5-Chloro-2-(10-methanesulfonyl-12-oxa-10-aza-tricyclo[6.3.1.0*2,7*]dodeca-2(7),3,5-trien-4-ylamino)-pyrimidin-4-ylamino]-N-methyl-benzamide]
IC50 [1, 5]: 100 to 1000 nM
IC50 [2, 6]: < 100 nM

Molecule: CNC(=O)c1ccccc1Nc1nc(Nc2ccc3c(c2)CCN(CC(C)(C)F)CC3)ncc1Cl [Example 39, 2-{5-Chloro-2-[3-(2-fluoro-2-methyl-propyl)-2,3,4,5-tetrahydro-1H-benzo[d]azepin-7-ylamino]-pyrimidin-4-ylamino}-N-methyl-benzamide]
IC50 [1, 5]: < 100 nM
IC50 [2, 6]: 100 to 1000 nM

Molecule: COCCN1C(=O)CCCc2c1ccc(Nc1ncc(Cl)c(Nc3ccc(N4CCOCC4)cc3OC)n1)c2OC [Example 127, 7-[5-Chloro-4-(2-methoxy-4-morpholin-4-yl-phenylamino)-pyrimidin-2-ylamino]-6-methoxy-1-(2-methoxy-ethyl)-1,3,4,5-tetrahydro-benzo[b]azepin-2-one]
IC50 [1, 5]: < 100 nM
IC50 [2, 6]: > 10000 nM

Molecule: CCN1CC2CC1CN2c1ccc(Nc2nc(Nc3cc4c(cc3OC)CCN(CC(=O)N(C)C)CC4)ncc2Cl)c(OC)c1 (stereo not drawn) [Example 795, 2-(7-{5-Chloro-4-[4-(5-ethyl-2,5-diaza-bicyclo[2.2.1]hept-2-yl)-2-methoxy-phenylamino]-pyrimidin-2-ylamino}-8-methoxy-1,2,4,5-tetrahydro-benzo[d]azepin-3-yl)-N,N-dimethyl-acetamide]
IC50 [1, 7]: < 100 nM
IC50 [2, 8]: 1000 to 10000 nM

Molecule: COCCN1CCc2ccc(Nc3ncc(Cl)c(N[C@@H]4CCC[C@H]4NS(C)(=O)=O)n3)cc2CC1 (relative stereo) [Example 371, N-(trans-2-{5-Chloro-2-[3-(2-methoxy-ethyl)-2,3,4,5-tetrahydro-1H-benzo[d]azepin-7-ylamino]-pyrimidin-4-ylamino}-cyclopentyl)-methanesulfonamide]
IC50 [1, 5]: 100 to 1000 nM
IC50 [2, 6]: 1000 to 10000 nM

Molecule: CC1(C)CCC(=O)Nc2ccc(Nc3ncc(Cl)c(Nc4ccc5[nH]c(C(F)(F)F)nc5c4)n3)cc21 [Example 1014, 7-[5-Chloro-4-(2-trifluoromethyl-1H-benzoimidazol-5-ylamino)-pyrimidin-2-ylamino]-5,5-dimethyl-1,3,4,5-tetrahydro-benzo[b]azepin-2-one]
IC50 [1, 3]: < 100 nM
IC50 [2, 4]: > 10000 nM

Molecule: Clc1cnc(Nc2ccc3c(c2)CCC(N2CCOCC2)CC3)nc1Nc1ccccc1-n1cccn1 (stereo not drawn) [Example 1034, 5-Chloro-N*2*-(7-morpholin-4-yl-6,7,8,9-tetrahydro-5H-benzocyclohepten-2-yl)-N*4*-(2-pyrazol-1-yl-phenyl)-pyrimidine-2,4-diamine]
IC50 [1, 3]: < 100 nM
IC50 [2, 4]: 100 to 1000 nM

Molecule: CNC(=O)c1ccccc1Nc1nc(Nc2ccc3c(c2)CCC(NCC(F)(F)F)CC3)ncc1Cl (stereo not drawn) [Example 651, 2-{5-Chloro-2-[7-(2,2,2-trifluoro-ethylamino)-6,7,8,9-tetrahydro-5H-benzocyclohepten-2-ylamino]-pyrimidin-4-ylamino}-N-methyl-benzamide]
IC50 [1, 7]: < 100 nM
IC50 [2, 8]: < 100 nM

Molecule: COCCN1CCc2ccc(Nc3ncc(Cl)c(Nc4c(F)cccc4C(=O)NCCC#N)n3)cc2CC1 [Example 1043, 2-{5-Chloro-2-[3-(2-methoxy-ethyl)-2,3,4,5-tetrahydro-1H-benzo[d]azepin-7-ylamino]-pyrimidin-4-ylamino}-N-(2-cyano-ethyl)-3-fluoro-benzamide]
IC50 [1, 3]: 100 to 1000 nM
IC50 [2, 4]: < 100 nM

Molecule: CNC(=O)c1ccccc1Nc1nc(Nc2ccc3c(c2)C2CCC3CN(C(=O)C(F)(F)F)C2)ncc1Cl (stereo not drawn) [Example 276, 2-{5-Chloro-2-[10-(2,2,2-trifluoro-acetyl)-10-aza-tricyclo[6.3.2.0*2,7*]trideca-2,4,6-trien-4-ylamino]-pyrimidin-4-ylamino}-N-methyl-benzamide]
IC50 [1, 5]: 100 to 1000 nM
IC50 [2, 6]: < 100 nM

Molecule: CNC(=O)c1cccc(F)c1Nc1nc(Nc2ccc3c(c2)CCN(C[C@@H](O)C(F)(F)F)CC3)ncc1Cl [Example 332, 2-{5-Chloro-2-[3-((R)-3,3,3-trifluoro-2-hydroxy-propyl)-2,3,4,5-tetrahydro-1H-benzo[d]azepin-7-ylamino]-pyrimidin-4-ylamino}-3-fluoro-N-methyl-benzamide]
IC50 [1, 5]: < 100 nM
IC50 [2, 6]: < 100 nM

Molecule: COc1cc2c(cc1Nc1ncc(Cl)c(N[C@H]3[C@@H](C(N)=O)[C@@H]4C=C[C@H]3C4)n1)CCC(NCCO)CC2 (single isomer, unassigned) [Example 1096]
IC50 [1, 3]: < 100 nM
IC50 [2, 4]: > 10000 nM

Next, values leading:

IC50 [1, 9]: < 100 nM
IC50 [2, 10]: 100 to 1000 nM
Molecule: CC1(C)CCC(=O)Nc2cc(Nc3ncc(Cl)c(Nc4ccccc4OCC#N)n3)ccc21 [Example 1578, {2-[5-Chloro-2-(5,5-dimethyl-2-oxo-2,3,4,5-tetrahydro-1H-benzo[b]azepin-8-ylamino)-pyrimidin-4-ylamino]-phenoxy}-acetonitrile]

IC50 [1, 3]: < 100 nM
IC50 [2, 4]: > 10000 nM
Molecule: CCN1C(=O)[C@H](NC(=O)CN(C)C)CCc2c1ccc(Nc1ncc(Cl)c(N[C@H]3[C@@H](C(N)=O)[C@@H]4C=C[C@H]3C4)n1)c2OC (single isomer, unassigned) [Example 1354]

IC50 [1, 3]: < 100 nM
IC50 [2, 4]: > 10000 nM
Molecule: CCN1C(=O)C(NC(=O)C2CC2)CCc2c1ccc(Nc1ncc(Cl)c(Nc3ccccc3S(=O)(=O)N(C)C)n1)c2OC (stereo not drawn) [Example 1359, Cyclopropanecarboxylic acid {7-[5-chloro-4-(2-dimethylsulfamoyl-phenylamino)-pyrimidin-2-ylamino]-1-ethyl-6-methoxy-2-oxo-2,3,4,5-tetrahydro-1H-benzo[b]azepin-3-yl}-amide]

IC50 [1, 3]: 100 to 1000 nM
IC50 [2, 4]: 1000 to 10000 nM
Molecule: COCCN1CCc2ccc(Nc3ncc(Cl)c(Nc4c(F)cc(F)cc4N4CCOCC4)n3)cc2CC1 [Example 1287, 5-Chloro-N(4)-(2,4-difluoro-6-morpholin-4-yl-phenyl)-N(2)-[3-(2-methoxy-ethyl)-2,3,4,5-tetrahydro-1H-3-benzazepin-7-yl]-pyrimidine-2,4-diamine]

IC50 [1, 3]: < 100 nM
IC50 [2, 4]: 1000 to 10000 nM
Molecule: COc1cc(N2CCOCC2)ccc1Nc1nc(Nc2ccc3c(c2)CCN(CC(=O)N(C)C)CC3)ncc1Cl [Example 1368, 2-{7-[5-Chloro-4-(2-methoxy-4-morpholin-4-yl-phenylamino)-pyrimidin-2-ylamino]-1,2,4,5-tetrahydro-benzo[d]azepin-3-yl}-N,N-dimethyl-acetamide]

IC50 [1, 3]: < 100 nM
IC50 [2, 4]: > 10000 nM
Molecule: CCN1C(=O)[C@H](N2CCOCC2)CCc2c1ccc(Nc1ncc(Cl)c(N[C@H]3[C@@H](C(N)=O)[C@@H]4C=C[C@H]3C4)n1)c2OC (single isomer, unassigned) [Example 1344]

IC50 [1, 9]: 100 to 1000 nM
IC50 [2, 10]: < 100 nM
Molecule: C#CCNC(=O)c1cccc(F)c1Nc1nc(Nc2ccc3c(c2)N(CC)C(=O)C(NC(=O)CN(C)C)CC3)ncc1Cl (stereo not drawn) [Example 1497, 2-{5-Chloro-2-[3-(2-dimethylamino-acetylamino)-1-ethyl-2-oxo-2,3,4,5-tetrahydro-1H-benzo[b]azepin-8-ylamino]-pyrimidin-4-ylamino}-3-fluoro-N-prop-2-ynyl-benzamide]
